In US6780403B1, “Deodorants” (Kao Corporation, priority 1999, dated 2004):

Experiments:
[1] = 25° C.; method (D), data bases such as pKa BASE of Compudrug; cited from earlier work
[2] = acid dissociation index (pK1, pK2) at 25° C.; assay type: physicochemical; settings: for Difference (pK2 - pK1): 25° C., method (D); for first acid dissociation index / second acid dissociation index: for the dibasic acid, source of value not given
Description: The organic dibasic acid used as a deodorant in the present invention is selected from organic dibasic acids and/or salts thereof having a difference between the first acid dissociation index and the second acid dissociation index of 1.7 or more at 25° C. (hereinafter, described as deodorant organic dibasic acid). The acid dissociation index can be measured, for example, by a method (A) described in The Journal of Physical Chemistry vol.
Further, previously obtained data may also be used. […] Further, the organic dibasic acid can be selected based on data bases (D) such as pKa BASE of Compudrug, and the like. The first acid dissociation index and the second acid dissociation index of the organic dibasic acid may be determined by any of the methods (A) to (D).

O=C(O)[C@@H]1CCCCC[C@H]1C(=O)O (relative stereo) [Trans-1,2-cycloheptanedicarboxylic acid]
First acid dissociation index (pK1) [1]: 4.30 | Second dissociation index (pK2) [1]: 6.18 | Difference (pK2 - pK1) [2]: 1.88

O=C(O)CC1(CC(=O)O)CCCCC1 [Cyclohexyl-1,1-diacetic acid]
First acid dissociation index (pK1) [1]: 3.49 | Second dissociation index (pK2) [1]: 7.08 | Difference (pK2 - pK1) [2]: 3.59

CC(C)(CC(=O)O)CC(=O)O [3,3-dimethylglutaric acid]
First acid dissociation index (pK1) [1]: 3.85 | Second dissociation index (pK2) [1]: 6.45 | Difference (pK2 - pK1) [2]: 2.60

CCC(C(=O)O)C(=O)O [2-ethylmalonic acid]
First acid dissociation index (pK1) [1]: 2.96 | Second dissociation index (pK2) [1]: 5.81 | Difference (pK2 - pK1) [2]: 2.85

CCCC(CC(=O)O)(CC(=O)O)c1ccccc1 [3-phenyl-3-propylglutaric acid]
First acid dissociation index (pK1) [1]: 3.88 | Second dissociation index (pK2) [1]: 6.94 | Difference (pK2 - pK1) [2]: 3.06

CC1CCC(CC(=O)O)(CC(=O)O)CC1 [4-methylcyclohexyl-1,1-diacetic acid]
First acid dissociation index (pK1) [1]: 3.49 | Second dissociation index (pK2) [1]: 6.10 | Difference (pK2 - pK1) [2]: 2.61

CC1(C)[C@H](C(=O)O)[C@@H]1C(=O)O [3,3-dimethyl-cis-1,2-cyclopropanedicarboxylic acid]
First acid dissociation index (pK1) [1]: 2.61 | Second dissociation index (pK2) [1]: 8.17 | Difference (pK2 - pK1) [2]: 5.56

CCC(CC)(CC(=O)O)CC(=O)O [3,3-diethylglutaric acid]
First acid dissociation index (pK1) [1]: 3.67 | Second dissociation index (pK2) [1]: 7.42 | Difference (pK2 - pK1) [2]: 3.75

CC(C)(C)C(C(=O)O)C(C(=O)O)C(C)(C)C (centres unmarked) [2,3-di-t-butylsuccinic acid]
First acid dissociation index (pK1) [1]: 2.20 | Second dissociation index (pK2) [1]: 10.26 | Difference (pK2 - pK1) [2]: 8.06

CCC(CC)(C(=O)O)C(=O)O [2,2-diethylmalonic acid]
First acid dissociation index (pK1) [1]: 2.15 | Second dissociation index (pK2) [1]: 7.42 | Difference (pK2 - pK1) [2]: 5.27

CCC(CC)C(CC)(CCC(=O)O)C(=O)O (centres unmarked) [2-ethyl-2-(1-ethylpropyl)glutaric acid]
First acid dissociation index (pK1) [1]: 2.15 | Second dissociation index (pK2) [1]: 7.31 | Difference (pK2 - pK1) [2]: 5.16

O=C(O)[C@@H]1CCC[C@H]1C(=O)O (relative stereo) [Trans-1,2-cyclopentandicarboxylic acid]
First acid dissociation index (pK1) [1]: 4.14 | Second dissociation index (pK2) [1]: 5.99 | Difference (pK2 - pK1) [2]: 1.85

CC(C)C(C(=O)O)(C(=O)O)C(C)C [2,2-diisopropylmalonic acid]
First acid dissociation index (pK1) [1]: 2.12 | Second dissociation index (pK2) [1]: 8.85 | Difference (pK2 - pK1) [2]: 6.73

O=C(O)/C=C\C(=O)O [Maleic acid]
Difference (pK2 - pK1) [2]: 4.08

CC(C)(C)C(C)(CC(=O)O)CC(=O)O [3-t-buthyl-3-methylglutaric acid]
First acid dissociation index (pK1) [1]: 3.61 | Second dissociation index (pK2) [1]: 7.49 | Difference (pK2 - pK1) [2]: 3.88

O=C(O)[C@H]1C[C@H]1C(=O)O [Cis-1,2-cyclopropanedicarboxylic acid]
First acid dissociation index (pK1) [1]: 3.56 | Second dissociation index (pK2) [1]: 6.65 | Difference (pK2 - pK1) [2]: 3.09

CCC(C)(C(=O)O)C(=O)O [2-ethyl-2-methylmalonic acid]
First acid dissociation index (pK1) [1]: 2.20 | Second dissociation index (pK2) [1]: 6.55 | Difference (pK2 - pK1) [2]: 4.35

CCCC(CCC)(CC(=O)O)CC(=O)O [3,3-dipropylglutaric acid]
First acid dissociation index (pK1) [1]: 3.65 | Second dissociation index (pK2) [1]: 7.48 | Difference (pK2 - pK1) [2]: 3.83

O=C(O)[C@H]1CCCCC[C@H]1C(=O)O [Cis-1,2-cycloheptanedicarboxylic acid]
First acid dissociation index (pK1) [1]: 3.87 | Second dissociation index (pK2) [1]: 7.60 | Difference (pK2 - pK1) [2]: 3.73

CC(CC(=O)O)(CC(=O)O)c1ccccc1 [3-methyl-3-phenylglutaric acid]
First acid dissociation index (pK1) [1]: 4.12 | Second dissociation index (pK2) [1]: 6.17 | Difference (pK2 - pK1) [2]: 2.05

O=C(O)CC(C(=O)O)c1ccccc1 (centres unmarked) [Phenylsuccinic acid]
First acid dissociation index (pK1) [1]: 3.78 | Second dissociation index (pK2) [1]: 5.55 | Difference (pK2 - pK1) [2]: 1.77

CCC(CC(=O)O)(CC(=O)O)c1ccccc1 [3-ethyl-3-phenylglutaric acid]
First acid dissociation index (pK1) [1]: 3.89 | Second dissociation index (pK2) [1]: 6.95 | Difference (pK2 - pK1) [2]: 3.06

CCC(C)(CC(=O)O)CC(=O)O [3-methyl-3-ethylglutaric acid]
First acid dissociation index (pK1) [1]: 3.62 | Second dissociation index (pK2) [1]: 6.70 | Difference (pK2 - pK1) [2]: 3.08

CCC(C(=O)O)C(CC)C(=O)O (centres unmarked) [2,3-diethylsuccinic acid]
First acid dissociation index (pK1) [1]: 3.63 | Second dissociation index (pK2) [1]: 6.46 | Difference (pK2 - pK1) [2]: 2.83

O=C(O)[C@@H]1CCCC[C@H]1C(=O)O (relative stereo) [Trans-1,2-cyclohexanedicarboxylic acid]
Difference (pK2 - pK1) [2]: 1.76

CC(C(=O)O)C(=O)O [2-methylmalonic acid]
First acid dissociation index (pK1) [1]: 3.05 | Second dissociation index (pK2) [1]: 5.76 | Difference (pK2 - pK1) [2]: 2.71

CC(C)C(C(=O)O)C(=O)O [2-isopropylmalonic acid]
First acid dissociation index (pK1) [1]: 2.92 | Second dissociation index (pK2) [1]: 5.88 | Difference (pK2 - pK1) [2]: 2.96

O=C(O)CC1(CC(=O)O)CCCC1 [cyclopentyl-1,1-diacetic acid]
First acid dissociation index (pK1) [1]: 3.80 | Second dissociation index (pK2) [1]: 6.77 | Difference (pK2 - pK1) [2]: 2.97

alkenylsuccinic acid carrying an alkenyl group having 12 carbon atoms [a-3]
first acid dissociation index [2]: 4.06 | second acid dissociation index [2]: 6.01

CC(C(=O)O)C(C)C(=O)O (centres unmarked) [2,3-dimethylsuccinic acid]
First acid dissociation index (pK1) [1]: 3.92 | Second dissociation index (pK2) [1]: 6.00 | Difference (pK2 - pK1) [2]: 2.08

CC(C)(C(=O)O)C(=O)O [2,2-dimethylmalonic acid]
Difference (pK2 - pK1) [2]: 2.70

CC1CCCC(CC(=O)O)(CC(=O)O)C1 (centres unmarked) [3-methylcyclohexyl-1,1-diacetic acid]
First acid dissociation index (pK1) [1]: 3.49 | Second dissociation index (pK2) [1]: 6.08 | Difference (pK2 - pK1) [2]: 2.59

O=C(O)[C@@H]1CCCCCC[C@H]1C(=O)O (relative stereo) [Trans-1,2-cyclooctanedicarboxylic acid]
First acid dissociation index (pK1) [1]: 4.37 | Second dissociation index (pK2) [1]: 6.24 | Difference (pK2 - pK1) [2]: 1.87

CCCC(CCC)(C(=O)O)C(=O)O [2,2-dipropylmalonic acid]
First acid dissociation index (pK1) [1]: 1.86 | Second dissociation index (pK2) [1]: 7.18 | Difference (pK2 - pK1) [2]: 5.32

O=C(O)[C@H]1CCC[C@H]1C(=O)O [Cis-1,2-cyclopentanedicarboxylic acid]
First acid dissociation index (pK1) [1]: 4.42 | Second dissociation index (pK2) [1]: 6.57 | Difference (pK2 - pK1) [2]: 2.15

CCC(C(=O)O)C(C)C(=O)O (centres unmarked) [2-ethyl-3-methylsuccinic acid]
First acid dissociation index (pK1) [1]: 3.20 | Second dissociation index (pK2) [1]: 6.10 | Difference (pK2 - pK1) [2]: 2.90

O=C(O)[C@H]1CCCC[C@H]1C(=O)O [Cis-1,2-cyclohexanedicarboxylic acid]
Difference (pK2 - pK1) [2]: 2.49

CC(C)(C)C(C(=O)O)C(=O)O [2-t-butylmalonic acid]
First acid dissociation index (pK1) [1]: 2.92 | Second dissociation index (pK2) [1]: 7.04 | Difference (pK2 - pK1) [2]: 4.12

CC1CCCCC1(CC(=O)O)CC(=O)O (centres unmarked) [2-methylcyclohexyl-1,1-diacetic acid]
First acid dissociation index (pK1) [1]: 3.53 | Second dissociation index (pK2) [1]: 6.89 | Difference (pK2 - pK1) [2]: 3.36

CC1CCC(CC(=O)O)(CC(=O)O)C1 (centres unmarked) [3-methylcyclopentyl-1,1-diacetic acid]
First acid dissociation index (pK1) [1]: 3.79 | Second dissociation index (pK2) [1]: 6.74 | Difference (pK2 - pK1) [2]: 2.95

CC(C)C(C)(CC(=O)O)CC(=O)O [3-isopropyl-3-methylglutaric acid]
First acid dissociation index (pK1) [1]: 3.78 | Second dissociation index (pK2) [1]: 6.92 | Difference (pK2 - pK1) [2]: 3.14

O=C(O)CC(CC(=O)O)(c1ccccc1)c1ccccc1 [3,3-diphenylglutaric acid]
First acid dissociation index (pK1) [1]: 4.02 | Second dissociation index (pK2) [1]: 6.81 | Difference (pK2 - pK1) [2]: 2.79

O=C(O)[C@H]1CCCCCC[C@H]1C(=O)O [Cis-1,2-cyclooctanedicarboxylic acid]
First acid dissociation index (pK1) [1]: 3.99 | Second dissociation index (pK2) [1]: 7.34 | Difference (pK2 - pK1) [2]: 3.35

CC(C)(C(=O)O)C(C)(C)C(=O)O [Tetramethylsuccinic acid]
First acid dissociation index (pK1) [1]: 3.56 | Second dissociation index (pK2) [1]: 7.41 | Difference (pK2 - pK1) [2]: 3.85

CC(C)C(CC(=O)O)(CC(=O)O)C(C)C [3,3-diisopropylglutaric acid]
First acid dissociation index (pK1) [1]: 3.65 | Second dissociation index (pK2) [1]: 7.68 | Difference (pK2 - pK1) [2]: 4.05

CCC(C(=O)O)(C(=O)O)C(C)C [2-ethyl-2-isopropylmalonic acid]
First acid dissociation index (pK1) [1]: 2.03 | Second dissociation index (pK2) [1]: 8.10 | Difference (pK2 - pK1) [2]: 6.07

O=C(O)[C@H]1CC[C@H]1C(=O)O [Cis-1,2-cyclobutanedicarboxylic acid]
First acid dissociation index (pK1) [1]: 4.16 | Second dissociation index (pK2) [1]: 6.23 | Difference (pK2 - pK1) [2]: 2.07

alkenylsuccinic acid carrying an alkenyl group having 14 carbon atoms [a-4]
first acid dissociation index [2]: 4.01 | second acid dissociation index [2]: 6.12
